Counter-ions that a name gives are not always drawn. Like-named read-outs stand apart in the source and are kept apart here.
Experiments:
[1] = test system: human HeLa cervix carcinoma cells; format: cell-based
Procedure: (§1) DICAM’s cytotoxicity was determined employing a modified MTT assay as described elsewhere ([Antúnez-Mojica et al., 2016]) using human lung carcinoma epithelial cells A549, human fetal lung fibroblasts IMR-90, and human HeLa cervix carcinoma cells treated with increasing concentrations of DICAMs (0.8–200 µM range). A549 cells were grown in RPMI 1640 (Gibco; Fisher Scientific, Spain) supplemented with 10% FCS, 2 mM glutamine, 100 IU/mL penicillin and 100 μg/mL streptomycin. IMR-90 and HeLa cells were cultured in DMEM (Gibco; Fisher Scientific, Spain) supplemented with 10% FCS, 2 mM L-glutamine, 1 mM pyruvate, […] penicillin, 100 μg/mL streptomycin and 40 μg/mL gentamycin. Cell viability was assessed after 48 h exposure to DICAMs. Vinblastine was used as a positive control. IC50 value is the concentration that gives 50% inhibition of cell growth and was determined using SigmaPlot (Systat) fitting to a Four Parameter Logistic curve.

[2] = test system: human lung carcinoma epithelial cells A549; format: cell-based
Procedure: as §1

[3] = test system: Pseudomonas aeruginosa PAO1; assay: Resting-cell viability (CFU) with 0.5 mM EDTA; format: cell-based; set-up: key to CFU's decay in the presence of 0.5 mM EDTA, Pa (data in parenthesis): (+) CFU, decay ∼1 log-unit; (−) ≤ 0.3 log-units; conditions: for CFU's decay in the presence of 0.5 mM EDTA, Pa (data in parenthesis): P. aeruginosa PAO1, 100 µM compound, 3 h incubation; for Decrease in bacterial viability compared to controls in EDTA-containing buffer, P. aeruginosa: P. aeruginosa PAO1, 100 µM, 20 mM Tris-HCl pH 7.5, 3 h, 37°C
Procedure: (§2) Addition of tested compounds to the culture medium had little or no effect on bacterial growth, even at a concentration of 100 μM (Table 1). Since inactivity could arise from the inability of DICAMs to cross the outer membrane, we next tested their effect on bacterial suspensions in the absence or the presence of 0.5 mM EDTA, an outer membrane permeating agent. A decrease of approximately 90% in bacterial viability was observed after 3 h treatment with DICAM 2 and DICAM 4, compared to controls in EDTA-containing buffer (Supplementary Figure S5). No variations were found with the other compounds tested (Table 1), showing that only DICAMs containing Ala/Asn- Pro -Glu tripeptides were able to access the cell membrane and kill these pathogens when the outer membrane permeability was enhanced.
(§3) For activity assays on resting cells, bacteria grown to exponential phase (OD600 ≈ 0.3) were centrifuged and washed with 20 mM Tris-HCl (pH 7.5), adjusting the final OD600 to ≈0.6 (≈10^8 CFU/mL) with the same buffer. If required, EDTA (0.5 mM final concentration) was next added and the bacterial suspension was dispensed (225 µL per well) in 96-well plates, and then treated with 100 µM DICAM (25 µL). Samples were incubated at 37°C for 3 h and turbidity measurements were taken at selected intervals, also measuring the decay in cell viability at the end of incubation. Controls with buffer (with and without 1% DMSO), 100 µM DICAM, or 0.5 mM EDTA were run in parallel.

[4] = Calcein release from LUVs; conditions: 10 μM DICAM, 25°C; for Permeation of DOPE:POPG:CL (80:15:5) LUVs, result in words: vesicle buffer pH 7.4, calcein release; for Leak of calcein from pure POPG LUVs, result in words: vesicle buffer (10 mM Tris, 140 mM NaCl, 0.5 mM EDTA, pH 7.4), fluorescence 480/550 nm, normalised to 0.025% Triton-X100
Procedure: LUVs were prepared for calceine liberation assays as described ([Chongsiriwatana and Barron, 2009]). Lipid composition (mole %) of LUVs was: POPG (100), POPG:CL (80:20), POPG:CL:DOPE ([…]), and POPG:CL:GlcDAG (75:5:20). Briefly, the nitrogen-dried lipid mixture was dissolved at 1.25 mM with 100 mM calceine in vesicle buffer (10 mM Tris, 140 mM NaCl, 0.5 mM EDTA, pH 7.4) followed by five thaw-freeze cycles. Calceine-entrapped LUVs were prepared by extrusion through 100 nm polycarbonate membranes (Avanti Polar Lipids). Non-entrapped calceine was separated from LUVs by gel filtration on a Sephacryl® S200-HR column (Sigma). LUVs permeabilization was monitored at 25°C by fluorescence emission at 550 nm (λex = 480 nm) as a function of time in a Fluoromax-4 spectrofluorometer (Horiba, France) using agitation. Signal stabilization of samples (1,500 µL vesicle buffer plus 45 µL LUVs) was recorded for 5 min before 10 µM final DICAM addition, and calcein release was monitored for a maximum of 20 min. After incubation, samples were solubilized in Triton X-100 (0.025%) and the fluorescence signal recorded thereafter was used to normalize the entire data set. Solubilization of DICAM-untreated LUVs in Triton X-100 was used as a positive control. No perturbation was detected in controls containing DMSO.

Escherichia coli DH10B = assay: Resting-cell viability (CFU) with 0.5 mM EDTA; format: cell-based; set-up: key to CFU's decay in the presence of 0.5 mM EDTA, Ec (data in parenthesis): (+) CFU, decay ∼1 log-unit; (−) ≤ 0.3 log-units; conditions: for Decrease in bacterial viability compared to controls in EDTA-containing buffer, E. coli: 100 µM, 20 mM Tris-HCl pH 7.5, 3 h, 37°C; for CFU's decay in the presence of 0.5 mM EDTA, Ec (data in parenthesis): E. coli DH10B, 100 µM compound, 3 h incubation
Procedure: as §2, §3

S. aureus T = assay: Growth inhibition and bacterial survival at 100 µM (Figure 6); format: cell-based, Staphylococcus aureus; conditions: 100 µM compound, BHI, 37°C; for S. aureus T growth, % of controls: five or more hours of incubation, increment in OD600 vs controls
Procedure: FIGURE 6 Antimicrobial effect of DICAMs active on S. aureus ^T. (A) Growth inhibition after culture challenge at 37°C with 100 μM of compound for 2, 5, and 6.5 h in BHI. Bars represent the percentage of the increment in OD600 for treated samples compared to controls and color goes from light to dark as time increases. “X” represents Ala, Asn, Glu or Orn. (B) Dependence of the kinetics of growth (OD600) (left panel) and bacterial population (right panel) on DICAM 14 dose. Bars in light and dark grey show bacterial populations of the initial inoculum and after incubation (3 and 5 h, respectively). Data shown are the average of three replicates, with error bars indicating the standard deviation of the mean.
Susceptibility to DICAMs was first tested by growth-inhibition assays at 50 and 100 μM of compound. Briefly, working solutions at 5 mM or 10 mM DICAM in pure DMSO were prepared from DICAM stocks (40 mM in pure DMSO) and diluted with fresh culture medium to 5× the desired final concentration. Aliquots (50 µL) of these solutions were added to 200 µL of bacterium cultures grown to early exponential phase (OD550/600 c. a. 0.15–0.2 in sterile 96-well plates (Cultek, Spain). Incubation continued for 10 h at 37°C and turbidity (OD550/600) values were measured every 20 min to monitor growth and lysis, using a VersaMax microplate reader (Molecular Devices; United Kingdom). Next, the activity dependence on DICAM’s dose was examined by measuring the turbidity of treated and untreated cultures as a function of time. Also, the decay of bacterial viability (CFU/mL) at selected times of treatment was assessed by colony counting on LB-agar or TSA plates after overnight incubation at 37°C. By default, 10 μL of 10-fold serially diluted samples were plated, which set the lower detection limit at 10^2 CFU/mL (10^1 CFU/mL when 100 μL of the undiluted sample was seeded).

Row | Molecule | IC50 ([1]; 48 h) [µM] | IC50 ([2]; 48 h) [µM] | CFU's decay in the presence of 0.5 mM EDTA, Pa (data in parenthesis) [3] | CFU's decay in the presence of 0.5 mM EDTA, Ec (data in parenthesis) (Escherichia coli DH10B) | also measured
1 | CCCCCCCCCCCCCCCCCCNC(=O)[C@H](CCC(=O)O)NC(=O)[C@H]1CCCN1C(=O)[C@H](CC(N)=O)NC(=O)OCc1ccccc1 [DICAM 1, Cbz-Asn- Pro -Glu-NH-C18H37] | 29 ± 2 | 45 ± 6 | – | – | –
2 | CCCCCCCCCCCCCCCCCCNC(=O)[C@H](CCC(=O)O)NC(=O)[C@H]1CCCN1C(=O)[C@@H](N)CC(N)=O [DICAM 2, Asn- Pro -Glu-NH-C18H37 ·HCl] | 42 ± 2 | 42 ± 5 | (+) | (+) | Decrease in bacterial viability compared to controls in EDTA-containing buffer, P. aeruginosa [3]: approximately 90%; Permeation of DOPE:POPG:CL (80:15:5) LUVs, result in words [4]: did not permeate; Decrease in bacterial viability compared to controls in EDTA-containing buffer, E. coli (Escherichia coli DH10B): approximately 90%
3 | CCCCCCCCCCCCCCCCCCNC(=O)[C@H](CCC(=O)O)NC(=O)[C@H]1CCCN1C(=O)[C@H](C)NC(=O)OCc1ccccc1 [DICAM 3, Cbz-Ala- Pro -Glu-NH-C18H37] | 49.2 ± 1.5 | 59.2 ± 0.7 | (−) ((−) ≤ 0.3 log-units) | (−) ((−) ≤ 0.3 log-units) | –
4 | CCCCCCCCCCCCCCCCCCNC(=O)[C@H](CCC(=O)O)NC(=O)[C@H]1CCCN1C(=O)[C@H](C)N [DICAM 4, Ala- Pro -Glu-NH-C18H37 ·HCl] | 32 ± 2 | ≥ 25 | (+) | (+) | Decrease in bacterial viability compared to controls in EDTA-containing buffer, P. aeruginosa [3]: approximately 90%; S. aureus T growth, % of controls (S. aureus T): ≈ 25 % of controls; Leak of calcein from pure POPG LUVs, result in words [4]: full; Permeation of DOPE:POPG:CL (80:15:5) LUVs, result in words [4]: did not permeate; Decrease in bacterial viability compared to controls in EDTA-containing buffer, E. coli (Escherichia coli DH10B): approximately 90%
5 | CCCCCCCCCCCCCCCCNC(=O)[C@H](CCC(=O)O)NC(=O)[C@H]1CCCN1C(=O)[C@H](CC(N)=O)NC(=O)OCc1ccccc1 [DICAM 10, Cbz-Asn- Pro -Glu-NH-C16H33] | 28 ± 0.7 | 35 ± 2 | – | – | –
6 | CCCCCCCCCCCCCCCCCCNC(=O)[C@H](C)NC(=O)[C@H]1CCCN1C(=O)[C@H](C)N [DICAM 14, Ala- Pro -Ala-NH-C18H37 · HCl] | 6.3 ± 0.7 | 8 ± 0.3 | (−) ((−) ≤ 0.3 log-units) | (−) ((−) ≤ 0.3 log-units) | Permanent fall in bacterial survival (S. aureus T; S. aureus T, 5 h incubation): ≈ 85%
7 | CCCCCCCCCCCCCCCCCCNC(=O)[C@H](CCC(=O)O)NC(=O)[C@H]1CCCN1C(=O)[C@H](CCC(=O)O)NC(=O)OCc1ccccc1 [DICAM 19, Cbz-Glu- Pro -Glu-NH-C18H37] | 46 ± 2 | 45 ± 2 | – | – | –
8 | CCCCCCCCCCCCCCCCCCNC(=O)[C@H](CCC(=O)O)NC(=O)[C@H]1CCCN1C(=O)[C@@H](N)CCC(=O)O [DICAM 20, Glu- Pro -Glu-NH-C18H37 · HCl] | 59.2 ± 0.1 | 91 ± 2 | – | – | Leak of calcein from pure POPG LUVs, result in words [4]: partial
9 | CCCCCCCCCCCCCCCCCCNC(=O)[C@H](CCC(=O)O)NC(=O)[C@H]1CCCN1C(=O)[C@H](CCCN)NC(=O)OCc1ccccc1 [DICAM 21, Cbz-Orn- Pro -Glu-NH-C18H37] | – | – | – | – | Permeation of DOPE:POPG:CL (80:15:5) LUVs, result in words [4]: able to permeate and release calcein
10 | CCCCCCCCCCCCCCCCCCNC(=O)[C@H](CCC(=O)O)NC(=O)[C@H]1CCCN1C(=O)[C@@H](N)CCCN [DICAM 22, Orn- Pro -Glu-NH-C18H37 · HCl] | 57.2 ± 0.4 | 59.6 ± 0.9 | – | – | –
11 | CCCCCCCCCCCCCCCCCCNC(=O)[C@H](CCC(=O)O)NC(=O)[C@H]1CCCN1C(=O)[C@H](C)NC(C)=O [DICAM 24, Ac-Ala- Pro -Glu-NH-C18H37] | 28.4 ± 0.2 | 40 ± 3 | – | (−) ((−) ≤ 0.3 log-units) | –
12 | Ala - Pro -Glu-NH-C18H37 · HCl [DICAM 23] | – | – | – | – | S. aureus T growth, % of controls (S. aureus T): ≈ 25 % of controls; Leak of calcein from pure POPG LUVs, result in words [4]: full; IC50 ([1]; modified MTT, 48 h exposure, 0.8–200 µM, four parameter logistic fit, ± SD, at least three independent experiments, read-out: IC50 HeLa): 13.4 ± 0.9 µM; IC50 ([2]; modified MTT, 48 h exposure, 0.8–200 µM, four parameter logistic fit, ± SD, at least three independent experiments, read-out: IC50 A549): 80.6 ± 0.2 µM
